The assay deals with nude mice, LX-1 lung xenograft intrarenal, tumor weight T/C. The experiment in a line: NCI In Vivo Anticancer Drug Screen. Data for tumor model Human Lung LX-1 Xenograft (intrarenal inoculation) in NU/NU Swiss (nude) mice. The conditions noted are these: endpoint: mean tumor weight change, higher = larger tumour. The gist of the method: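 Readout: T/C, i.e. treated-group tumor measurement over vehicle-control measurement. Mice bearing transplantable tumors were dosed with compound or vehicle.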

Where [1] appears, read: dose: 300.0 mg/kg/injection, schedule: Q04DX003 (sc), vehicle: saline with Tween-80.
The mark [2] stands for this setting: dose: 600.0 mg/kg/injection, schedule: Q04DX003 (sc), vehicle: saline with Tween-80.
[3] abbreviates: dose: 1200.0 mg/kg/injection, schedule: Q04DX003 (sc), vehicle: saline with Tween-80.
Where [4] appears, read: dose: 2400.0 mg/kg/injection, schedule: Q04DX003 (sc), vehicle: saline with Tween-80.
Where [5] appears, read: dose: 100.0 mg/kg/injection, schedule: Q04DX003 (sc), vehicle: saline.
The mark [6] stands for this setting: dose: 200.0 mg/kg/injection, schedule: Q04DX003 (sc), vehicle: saline.
[7] abbreviates: dose: 200.0 mg/kg/injection, schedule: Q01DX010 (sc), vehicle: saline with Tween-80.
Where [8] appears, read: dose: 400.0 mg/kg/injection, schedule: Q01DX010 (sc), vehicle: saline with Tween-80.

Several values for one entry are separate records, joined by “and”; a condition that tells them apart may be missing. Equal entries are not always repeated. Inconclusive results are not listed.

As to `CCOC(=O)CNC(=O)CCCCSc1ncnc2nc[nH]c12`, the T/C runs as follows: under setting [1], 80 % of control; under setting [2], 86 % of control; under setting [3], 85 % of control; under setting [4], 114 % of control.

With `COc1cccc2c1C(=O)c1c(O)c3c(c(O)c1C2=O)C[C@@](O)(C(=O)CO)C[C@@H]3OC1CC(N)CC(C)O1` (some centres not stated), under “dose: 1.5 mg/kg/injection, schedule: Q01DX010 (sc), vehicle: water”, the T/C was 23 % of control.

Turning to `O=NNc1ccccn1`, the T/C runs as follows: (dose: 0.13 mg/kg/injection, schedule: Q01DX010 (sc), vehicle: saline) 120 % of control; (dose: 0.25 mg/kg/injection, schedule: Q01DX010 (sc), vehicle: saline) 309 % of control; (dose: 0.5 mg/kg/injection, schedule: Q01DX010 (sc), vehicle: saline) 211 % of control; (dose: 1.0 mg/kg/injection, schedule: Q01DX010 (sc), vehicle: saline) 105 % of control; (dose: 32.0 mg/kg/injection, schedule: Q01DX010 (sc), vehicle: saline) 46 % of control; (dose: 64.0 mg/kg/injection, schedule: Q01DX010 (sc), vehicle: saline) 30 % of control.

Regarding `C=C1C(=O)C2=CC1CCC(=O)C1(C)CCC(OC(C)=O)C(C)(C)C1CC2O` (configuration not stated), the T/C was 121 % of control (dose: 60.0 mg/kg/injection, schedule: Q04DX003 (sc), vehicle: Klucel (hydroxypropylcellulose) (HPC)) and 57 % of control (dose: 120.0 mg/kg/injection, schedule: Q04DX003 (sc), vehicle: Klucel (hydroxypropylcellulose) (HPC)).

Regarding `Cc1[nH]c(=O)[nH]c(=O)c1N(CCF)CCCl`, the T/C (dose: 40.0 mg/kg/injection, schedule: Q01DX010 (sc), vehicle: Klucel (hydroxypropylcellulose) (HPC)) is 19 % of control and 34 % of control and 36 % of control.

Consider `Cc1cc(NCCCCCCNc2cc(C)nc3cc(N(C)C)ccc23)c2ccc(N(C)C)cc2n1`, for which the T/C is 46 % of control (dose: 75.0 mg/kg/injection, schedule: Q04DX003 (sc), vehicle: distilled water + Tween-80 + alcohol) and 44 % of control (dose: 150.0 mg/kg/injection, schedule: Q04DX003 (sc), vehicle: distilled water + Tween-80 + alcohol).

As to `COc1cc(C2c3cc4c(cc3C(O)C(CO)C2CO)OCO4)cc(OC)c1OC` (configuration not stated), the T/C under setting [1] was 103 % of control, the T/C under setting [2] is 95 % of control, the T/C under setting [3] was 90 % of control and the T/C under setting [4] is 38 % of control.

With `OCCN1CCN(CC/C=C2/c3ccccc3Sc3ccc(C(F)(F)F)cc32)CC1`, the T/C was 54 % of control (dose: 10.0 mg/kg/injection, schedule: Q01DX010 (sc), vehicle: saline); 45 % of control (dose: 20.0 mg/kg/injection, schedule: Q01DX010 (sc), vehicle: saline); 29 % of control (dose: 40.0 mg/kg/injection, schedule: Q01DX010 (sc), vehicle: saline).

For the molecule `NCCc1cc(O)c(O)c(O)c1`, the T/C under setting [5] is 83 % of control; the T/C under setting [6] is 96 % of control; the T/C (dose: 800.0 mg/kg/injection, schedule: Q04DX003 (sc), vehicle: saline) was 91 % of control.

Consider `O=C1C(NCC(O)CO)=C(N2CC2)C(=O)C(NCC(O)CO)=C1N1CC1` (configuration not stated), for which the T/C reads like this: (dose: 4.0 mg/kg/injection, schedule: Q04DX003 (ip), vehicle: saline) 102 % of control; (dose: 8.0 mg/kg/injection, schedule: Q04DX003 (ip), vehicle: saline) 84 % of control; (dose: 16.0 mg/kg/injection, schedule: Q04DX003 (ip), vehicle: saline) 61 % of control; (dose: 32.0 mg/kg/injection, schedule: Q04DX003 (ip), vehicle: saline) 50 % of control.

In the case of `CC1(c2ccc(Cl)cc2)OC(=O)C(=Cc2ccc([N+](=O)[O-])s2)C(=O)O1` (configuration not stated), the T/C runs as follows: (dose: 200.0 mg/kg/injection, schedule: Q04DX003 (sc), vehicle: saline with Tween-80) 111 % of control; (dose: 800.0 mg/kg/injection, schedule: Q04DX003 (sc), vehicle: saline with Tween-80) 80 % of control; (dose: 1600.0 mg/kg/injection, schedule: Q04DX003 (sc), vehicle: saline with Tween-80) 118 % of control.

As to `c1csc(C[N+]23CN4CN(CN(C4)C2)C3)c1`, the T/C reads like this: under setting [5], 112 % of control; under setting [6], 100 % of control; (dose: 400.0 mg/kg/injection, schedule: Q04DX003 (sc), vehicle: saline) 92 % of control.

As for `OCC1OC(n2cnc3cc(Cl)c(Cl)cc32)C(O)C1O` (configuration not stated), the T/C under setting [1] is 112 % of control, the T/C under setting [2] is 86 % of control, the T/C under setting [3] was 94 % of control and the T/C under setting [4] was 72 % of control.

As to `COC1C(OC(=O)/C=C/C=C/C=C/C=C/C(=O)O)CCC2(CO2)C1C1(C)OC1CC=C(C)C` (configuration not stated), the T/C (dose: 75.0 mg/kg/injection, schedule: Q04DX003 (sc), vehicle: saline) is 76 % of control; the T/C (dose: 150.0 mg/kg/injection, schedule: Q04DX003 (sc), vehicle: saline) was 81 % of control; the T/C (dose: 300.0 mg/kg/injection, schedule: Q04DX003 (sc), vehicle: saline) was 75 % of control; the T/C (dose: 600.0 mg/kg/injection, schedule: Q04DX003 (sc), vehicle: saline) is 66 % of control.

For `CCCCCCC(=O)CC(SCC)c1ccccc1Cl` (configuration not stated), the T/C runs as follows: under setting [1], 82 % of control; under setting [2], 96 % of control; under setting [3], 92 % of control; under setting [4], 72 % of control.

For the molecule `O=C1C=CC(=O)N1c1ccc(Cl)cc1`, the T/C is 116 % of control (dose: 37.5 mg/kg/injection, schedule: Q04DX003 (sc), vehicle: Klucel (hydroxypropylcellulose) (HPC)); 123 % of control (dose: 75.0 mg/kg/injection, schedule: Q04DX003 (sc), vehicle: Klucel (hydroxypropylcellulose) (HPC)); 85 % of control (dose: 150.0 mg/kg/injection, schedule: Q04DX003 (sc), vehicle: Klucel (hydroxypropylcellulose) (HPC)).

On to `CC(=O)OCC1OC(OC2=C(CC=C(C)C)C(=O)c3ccccc3C2=O)C(OC(C)=O)C(OC(C)=O)C1OC(C)=O` (configuration not stated), for which the T/C was 61 % of control (dose: 12.5 mg/kg/injection, schedule: Q01DX010 (sc), vehicle: Klucel (hydroxypropylcellulose) (HPC)); 119 % of control (dose: 25.0 mg/kg/injection, schedule: Q01DX010 (sc), vehicle: Klucel (hydroxypropylcellulose) (HPC)); 97 % of control (dose: 50.0 mg/kg/injection, schedule: Q01DX010 (sc), vehicle: Klucel (hydroxypropylcellulose) (HPC)); 83 % of control (dose: 100.0 mg/kg/injection, schedule: Q01DX010 (sc), vehicle: Klucel (hydroxypropylcellulose) (HPC)).

Regarding `C/C=C1\C[C@@H]2C(OC)Nc3cc(O)c(OC)cc3C(=O)N2C1` (some centres not stated), the T/C by setting is: (dose: 0.5 mg/kg/injection, schedule: Q04DX003 (sc), vehicle: saline) 93 % of control; (dose: 1.0 mg/kg/injection, schedule: Q04DX003 (sc), vehicle: saline) 111 % of control; (dose: 2.0 mg/kg/injection, schedule: Q04DX003 (sc), vehicle: saline) 107 % of control; (dose: 4.0 mg/kg/injection, schedule: Q04DX003 (sc), vehicle: saline) 96 % of control.

For `Cc1ccccc1SSc1ccccc1C`, the T/C was 268 % of control under setting [7] and 99 % of control under setting [8].

As to `C[C@H]1C[C@@H]2[C@H]([C@@H](O)C[C@@]3(C)[C@H]2CC[C@]3(O)C(=O)CO)[C@@]2(C)C=CC(=O)C=C12`, the T/C is, setting by setting: (dose: 200.0 mg/kg/injection, schedule: Q04DX003 (sc), vehicle: Klucel (hydroxypropylcellulose) (HPC)) 76 % of control; (dose: 400.0 mg/kg/injection, schedule: Q04DX003 (sc), vehicle: Klucel (hydroxypropylcellulose) (HPC)) 58 % of control; (dose: 800.0 mg/kg/injection, schedule: Q04DX003 (sc), vehicle: Klucel (hydroxypropylcellulose) (HPC)) 59 % of control.

Take `CN(C1=NS(=O)(=O)N=C(N(C)c2ccccc2)O1)c1ccccc1`: the T/C was 66 % of control (dose: 300.0 mg/kg/injection, schedule: Q04DX003 (sc), vehicle: Klucel (hydroxypropylcellulose) (HPC)); 61 % of control (dose: 600.0 mg/kg/injection, schedule: Q04DX003 (sc), vehicle: Klucel (hydroxypropylcellulose) (HPC)); 79 % of control (dose: 1200.0 mg/kg/injection, schedule: Q04DX003 (sc), vehicle: Klucel (hydroxypropylcellulose) (HPC)); 91 % of control (dose: 2400.0 mg/kg/injection, schedule: Q04DX003 (sc), vehicle: Klucel (hydroxypropylcellulose) (HPC)).

Regarding `COc1ccc2nc3cc(Cl)ccc3c(NCCNCCNCCNc3c4ccc(Cl)cc4nc4ccc(OC)cc34)c2c1`, the T/C is 81 % of control (dose: 12.5 mg/kg/injection, schedule: Q01DX010 (sc), vehicle: saline with Tween-80); 106 % of control (dose: 50.0 mg/kg/injection, schedule: Q01DX010 (sc), vehicle: saline with Tween-80); 70 % of control under setting [7]; 46 % of control under setting [8].

Source of the values: PubChem BioAssay AID264 (DTP/NCI, 2004).
